Here are results for 26 compounds from patent EP1592418B1, “USE OF ENDOCANNABINOID-LIKE COMPOUNDS FOR TREATING CNS DEGENERATIVE DISORDERS” (Research & Innovation S.p.A., priority 2003, dated 2004).

Bounds are passed on as bounds.

One series deals with Jurkat cells. Description: Evaluation of cellular viability by MTT assay. The format is cell-based, human. Conditions: for Growth inhibition (% of control): 10 µM, incubated 18-24 hr, MTT, absorbance 570 nm. The protocol: Jurkat, an acute T-lymphoblastic leukemia cell line generated from a person, have been used. Cell culture have been cultured in RPMI-1640 culture medium containing 10% FBS.
Jurkat cells were cultured at 1x10^5 cells/ml in RPMI 1640 medium supplemented with 10% fetal bovine serum (FBS), 2mM L-glutamine and 100 U/ml penicillin + 100 ug/ml streptomycin.
To detect drug effect in vitro, MTT [3-(4,5-dimethylthiazol-2-yl)-2,5-diphenyltetrazolium bromide] assay was used as described (Carmichael J et al., 1987 Cancer Res. 47, 936-42). Briefly, cells were seeded in triplicate on 96-well culture plates at a density of 20000 cells/well. The drugs were added in order to have the final concentration of 10 µM (1 µl of a solution of 10mM in DMSO) and incubated for 18-24 hr. Then MTT (0.5 mg/ml) was added to each well, and plates were incubated for an additional 1 to 3 hr in the dark at 37 °C. After this time the MTT solution was aspirated from the wells and 0.1 ml of DMSO was added. The plates were allowed to stand for 10 min, and then the absorbance was determined in a SpectraCount (Packard) microplate reader at 570 nm. The drug effect was determined by comparing absorbances of treated and untreated cells.
In general terms: Formazan colour is commonly taken as a measure of viable cells.

Series [1] can be described thus: Solubility (physico-chemical properties). To be noted: for solubility: organic solvent or mixture, read-out: solubility in organic solvents. The class given is physicochemical.
Series [2] relates to reverse passive Arthus reaction, mouse ear pinna. Description: Reverse passive Arthus reaction (RPA) in the mouse ear pinna: oedema and Evans blue extravasation. The format is in vivo. To be noted: for Extravasation / Riduction % (extravasation): 10 mg/Kg i.p.; for Extravasation: Evans blue density at 620 nm in ear homogenate supernatant, Vehicle 0,90±0,06, Naïve 0,04±0,01; for Oedema (mg): 10 mg/Kg intraperitoneally 1 hour before induction, weight increase of 8 mm punch vs contralateral ear, three hours after antigen, Vehicle 49,8 ± 1,2, Naive 23,7 ± 1,2; for Riduction % (extravasation): reduction of extravasation versus Vehicle (0). The source says: The Arthus model (RPA) is a model of immune-complex mediated tissue damage that involves the passive subcutaneous introduction of an antibody and the systemic administration of the corresponding antigen. This inflammatory model has been used to test the in vivo activity of the synthesised molecules.
The reverse passive Arthus reaction is induced, in the mouse ear pinna, by the subcutaneous injection of an excess of IgG anti human albumin followed by i.v. adiministration of the corresponding Ag (i.e. human albumin) together with Evans blue, 2 mg for each mouse, for the evaluation of extravasation.
The tested molecules were solubilised in DMSO, cremophor and PBS in a ratio of 1:1:18 and administered usually by intraperitonelly at the dosage of 10 mg/Kg 1 hour before the induction of anafilactic reaction. The animals were sacrificed 3 hours after the molecule administration.
The oedema and the extravasations are evaluated tree hours after the i.v. administration of the antigen. The oedema is evaluated as the increase of weight of lesioned ear area dissected by a 8 mm biopsy punch as compared to the contralateral unlesioned auricular tissues. The extravasation is measured determining the Evans blue density at 620 nm in the supernatants deriving from ear homogenates following centrifugation at 10000 x g for 20 min.

As for `CCCCCC/C=C\CCCCCCCC(=O)NC(C)C` [Example 3, N-Isopropyl-palmitoleyl amide], the “Growth inhibition (% of control)” value in the series on Jurkat cells is given as 60.5 % of control. In series [1] (in DMSO and in chloroform), the solubility was above 10000 µg/mL. Besides, the solubility in water entry in series [1] was “scarcely soluble”.

Consider `CCCCCCCC/C=C\CCCCCCCC(=O)NC(C)C` [Example 5, N-Isopropyl-oleyl amide], for which the “Growth inhibition (% of control)” value in the series on Jurkat cells was 66.6 % of control. Further, the solubility in series [1] (in DMSO and in chloroform) is above 10000 µg/mL. The solubility in water result in series [1] is given as “scarcely soluble”.

In the case of `CCCCCCCCCCCCCCCCCCCC(=O)NC(C)C` [Example 6, N-Isopropyl-arachidyl amide], the “Growth inhibition (% of control)” value in the series on Jurkat cells was 41.0 % of control. Also, the solubility in series [1] (in DMSO and in chloroform) is above 10000 µg/mL. Further, the solubility in water result in series [1] is “scarcely soluble”.

With `CCCCCCCCCCCCCCCCCC(=O)NCCc1ccccc1` [Example 7, N-β-phenylethyl-stearoyl amide], in the series on Jurkat cells, the “Growth inhibition (% of control)” value is 47.3 % of control. The solubility in series [1] (in DMSO and in chloroform) is above 10000 µg/mL. For the same compound, the solubility in water result in series [1] is “scarcely soluble”.

Regarding `CCCCCCCCCCCCCCCC(=O)OCCC` [Example 8, n-propyl-palmitate], the solubility in series [1] (in DMSO and in chloroform) is above 10000 µg/mL. For the same compound, in series [1], the solubility in water entry is listed as “scarcely soluble”.

As to `CCCCCCCCCCCCCCCCCC(=O)OCCC` [Example 9, n-propyl-stearate], the solubility in series [1] (in DMSO and in chloroform) was above 10000 µg/mL. Further, in series [1], the solubility in water result is reported as “scarcely soluble”.

Consider `CCCCCCCCCCCCCCCC(=O)OC(C)C` [Example 10, iso-propyl-palmitate], for which the solubility in series [1] (in DMSO and in chloroform) was above 10000 µg/mL. The solubility in water result in series [1] is on record as “scarcely soluble”.

Turning to `CCCCCCCCCCCCCCCCCC(=O)OC(C)C` [Example 11, iso-propyl-stearate], the solubility in series [1] (in DMSO and in chloroform) was above 10000 µg/mL. The solubility in water entry in series [1] was “scarcely soluble”.

In the case of `CCCCCCCCCCCCCCCCCCNC(C)=O` [Example 13, N-octadecyl-acetyl-amide], in the series with Jurkat cells, the “Growth inhibition (% of control)” value is on record as 67.2 % of control. Besides, in series [2] (mouse ear), the Extravasation was 0,74±0,07, the “Oedema (mg)” value was 43,3 ± 0.6 mg and the “Riduction % (extravasation)” value is 17.2%. Further, in series [1] (in DMSO and in chloroform), the solubility was above 10000 µg/mL. Moreover, in series [1], the solubility in water entry is recorded as “scarcely soluble”.

Consider `CCCCCCCCCCCCCCCC(=O)NC1CCCC1` [Example 14, N-cyclopentyl-palmitoyl amide], for which the “Growth inhibition (% of control)” value in the series on Jurkat cells is listed as 52.6 % of control. In series [2] (mouse ear, 10 mg/kg), the Extravasation is given as 0,52±0,06, the “Oedema (mg)” value is 39,5 ± 0.8 mg and the “Riduction % (extravasation)” value is reported as 32.3%. For the same compound, the “solubility in organic solvents” value in series [1] (in DMSO and in chloroform) is >10 mg/ml in DMSO and in chloroform. Further, the solubility in water result in series [1] is “scarcely soluble”.

Consider `CCCCCCCCCCCCCCCCCC(=O)NC1CCCCC1` [Example 16, N-cyclohexyl-stearoyl amide], for which the “Growth inhibition (% of control)” value in the series on Jurkat cells is 18.2 % of control. In addition, in series [2] (mouse ear), the Extravasation is recorded as 0,66±0,09, the “Oedema (mg)” value was 48,2 ± 1.8 mg and the “Riduction % (extravasation)” value was 26,7%. In addition, the solubility in series [1] (in DMSO and in chloroform) is above 10000 µg/mL. The solubility in water result in series [1] is reported as “scarcely soluble”.

For the compound `CCCCCCCCCCCCCCCC(=O)NCCC` [Example 17, N-propyl-palmitoyl amide], the “Growth inhibition (% of control)” value in the series on Jurkat cells is given as 21.4 % of control. In series [2] (mouse ear), the Extravasation is reported as 0,52±0,12, the “Oedema (mg)” value is reported as 32,3 ± 2.7 mg and the “Riduction % (extravasation)” value is 32.3%. Further, in series [1] (in DMSO and in chloroform), the solubility was above 10000 µg/mL. Moreover, in series [1], the solubility in water entry is recorded as “scarcely soluble”.

Take `CCCCCCCCCCCCCCCCCC(=O)NCCC` [Example 18, N- propyl-stearoyl amide]: the “Growth inhibition (% of control)” value in the series on Jurkat cells was 17.3 % of control. In series [2] (mouse ear), the Extravasation is given as 0,54±0,03, the “Oedema (mg)” value is given as 33,3 ± 0.2 mg and the “Riduction % (extravasation)” value turned out to be 40.0%. In series [1] (in DMSO and in chloroform), the solubility was above 10000 µg/mL. Moreover, the solubility in water entry in series [1] is listed as “scarcely soluble”.

As for `CCCCCCCCCCCCCCCC(=O)NC1CC1` [Example 19, N-cyclopropyl-palmitoyl amide], the “Growth inhibition (% of control)” value in the series on Jurkat cells is listed as 56.2 % of control. Besides, in series [2] (mouse ear), the Extravasation is reported as 0,32±0,02, the “Oedema (mg)” value is on record as 31,8 ± 3.6 mg and the “Riduction % (extravasation)” value is reported as 64.6%. Moreover, the solubility in series [1] (in DMSO and in chloroform) is above 10000 µg/mL. The solubility in water entry in series [1] was “scarcely soluble”.

For the compound `CCCCCCCCCCCCCCCCCC(=O)NC1CC1` [Example 20, N-cyclopropyl-stearoyl amide], the “Growth inhibition (% of control)” value with Jurkat cells is reported as 64.2 % of control. Also, in series [2] (mouse ear), the Extravasation is 0,35±0,06, the “Oedema (mg)” value is reported as 33,1 ± 0.9 mg and the “Riduction % (extravasation)” value amounted to 61.2%. In addition, in series [1] (in DMSO and in chloroform), the solubility was above 10000 µg/mL. The solubility in water result in series [1] is “scarcely soluble”.

As for `CCCCCCCCCCCCCCCCCC(=O)NCC(C)C` [Example 26, N-isobutyl-stearoyl amide], in series [2] (mouse ear), the Extravasation was 0,81±0,05, the “Oedema (mg)” value is 40,3 ± 0.7 mg and the “Riduction % (extravasation)” value is 10.0%. Also, the solubility in series [1] (in DMSO and in chloroform) is above 10000 µg/mL. Moreover, the solubility in water result in series [1] is on record as “scarcely soluble”.

Take `CCCCCCCCCCCCCCCC(=O)OCCCC` [Example 29, n-butyl-palmitate]: the solubility in series [1] (in DMSO and in chloroform) is above 10000 µg/mL. The solubility in water result in series [1] is on record as “scarcely soluble”.

Take `CCCCCCCCCCCCCCCCCC(=O)OCCCC` [Example 30, n-butyl-stearate]: the solubility in series [1] (in DMSO and in chloroform) was above 10000 µg/mL. The solubility in water result in series [1] is “scarcely soluble”.

Regarding `CCCCCCCCCCCCCCCC(=O)OCC(C)C` [Example 31, iso-butyl-palmitate], the solubility in series [1] (in DMSO and in chloroform) was above 10000 µg/mL. The solubility in water entry in series [1] is “scarcely soluble”.

Consider `CCCCCCCCCCCCCCCCCC(=O)OCC(C)C` [Example 32, iso-butyl-stearate], for which the solubility in series [1] (in DMSO and in chloroform) was above 10000 µg/mL. In series [1], the solubility in water result was “scarcely soluble”.

With `CCCCCCCCCCCCCCCC(=O)OCCCCC` [Example 39, n-pentyl-palmitate], the solubility in series [1] (in DMSO and in chloroform) was above 10000 µg/mL. In series [1], the solubility in water entry is listed as “scarcely soluble”.

Turning to `CCCCCCCCCCCCCCCCCC(=O)OCCCCC` [Example 40, n-pentyl-stearate], the solubility in series [1] (in DMSO and in chloroform) is above 10000 µg/mL. Further, the solubility in water entry in series [1] is on record as “scarcely soluble”.

For `CCCCCCCCCCCCCCCC(=O)OC1CCCC1` [Example 41, cyclopentyl-palmitate], the solubility in series [1] (in DMSO and in chloroform) is above 10000 µg/mL. Further, the solubility in water result in series [1] is on record as “scarcely soluble”.

As for `CCCC(C)(C)c1ccc2c(c1)OC(C)(C)[C@@H]1CC=C(C)C[C@@H]21` [JWH 133, reference compound], in the series with Jurkat cells, the “cellular death in vitro (in words)” value is “unable” and the “Growth inhibition (% of control)” value is 2.0 % of control. Moreover, in series [2] (mouse ear), the “reduction of oedema in vivo (in words)” value was “unable”. Further, in series [2] (mouse ear, i.p.), the “reduction of extravasation in vivo (in words)” value is “unable”.

As to `CCCCCCCC/C=C\CCCCCCCC(N)=O` [Oleylamide], in the series on Jurkat cells, the “Growth inhibition (% of control)” value is on record as 22.1 % of control. In series [2] (mouse ear), the Extravasation is 0,65±0,12, the “Oedema (mg)” value was 43,5 ± 2.6 mg and the “Riduction % (extravasation)” value is 21.8%.

With SR144528 [reference compound], the “antagonism of the anti-inflammatory effect of cannabinoid, endocannabinoid or molecules object of the invention (in words)” value in series [2] (CB2 selective antagonist) is listed as “did not antagonize”.

As a reminder, the solubility is how much of the substance goes into solution per volume.
